The test system of one series is freshly-cut apple slices. Put plainly: Anti-browning assay of freshly-cut apple slices. The following applies: for L* value change (ΔL*): 48 h storage time point; for inhibition at 5000 µM: Malus pumila, read-out: inhibition of apple slice browning (relative browning intensity) compared to control. Details: species or system Malus pumila Miller. The procedure:
Apples (Malus pumila Miller) of similar maturity were purchased from a local market (Emart24®, Busan, Republic of Korea). The apples were cut into small equal-sized pieces (W × D × H, 1.5 ± 0.1 cm × 1.5 ± 0.1 cm × 0.3 ± 0.05 cm). Three apple slices were placed in glass dishes with a diameter of 5 cm.
(§1) The apple slice dishes were placed in an incubator maintained at 20 °C. Kojic acid and PTU were used as positive controls. All samples, except PTU, were prepared as aqueous solutions. PTU test samples were prepared in a DMSO solution as it is only soluble in water at very low concentrations.
At five time points (0, 12, 24, 36, and 48 h), apple slices were photographed using a camera (iPhone 11), and browning colors (a*, b*, and L*) were measured using a CR-10 spectrophotometer (Konica Minolta Sensing, Inc., Osaka, Japan). In the spectrophotometer, the colors were described by a* (redness and greenness), b* (yellowness and blueness), and L* (lightness) values according to the Commission Internationale de l’Eclairage (CIE) color system. The overall color difference (ΔE) was calculated using the following formula: (ΔE)^2 = (a − ainitial)^2 + (b − binitial)^2 + (L − Linitial)^2. In addition, based on the photographs, the relative browning intensities were calculated using CS analyzer 3.2 image analysis software.

Series [1] is described as follows: Water solubility (statement). In kind it is physicochemical. The procedure:
as §1

Series [2] can be described thus: ABTS radical cation scavenging assay. The conditions noted are these: 100 μM test samples. The procedure: The ABTS radical cation-scavenging activities of analogs 1–10 were investigated according to a previously described protocol with minor modifications. Briefly, to prepare a test solution for the ABTS radical cation scavenging activity, potassium persulfate aqueous solution (10 mL, 2.45 mM) was mixed with ABTS aqueous solution (10 mL, 7 mM) and left for 12 h at room temperature in the dark until the absorbance remained constant. Prior to the ABTS radical cation scavenging assay experiments, the absorbance at 734 nm was adjusted to 0.70 ± 0.02 by diluting the ABTS radical cation solution with water. An aliquot (10 µL) of 1–10 or Trolox (the positive reference material) at 100 µM was mixed with the ABTS radical cation solution (90 µL) in each well of a 96-well plate and incubated for 10 min at ambient temperature in the dark. The optical density of each well was measured at 734 nm using a VersaMax® microplate reader. All experiments were performed independently 3 times.
The antioxidant potential of 1–10 was investigated using the ABTS radical cation scavenging technique. ABTS can be easily oxidized to the corresponding radical cation by oxidants such as potassium persulfate. Because of the correlation between melanogenesis and antioxidant activity, the ABTS radical-scavenging ability of 1–10 was examined. […]

Series [3] can be described thus: In vitro ROS scavenging assay (SIN-1, DCFH-DA). The conditions noted are these: 40 μM, ROS enhanced by SIN-1.
Description: At emission and excitation wavelengths of 535 and 485 nm, fluorescence intensity was measured using a fluorescence microplate reader (Berthold Technologies GmbH & Co., Wien, Austria).
Hydrolyzed DCFH reacts with ROS to produce the fluorescent substance dichlorofluorescein (DCF). The ROS-scavenging effects of the analogs were determined by measuring the emitted fluorescence. The in vitro ROS-scavenging effects were measured using 40 μM test samples.
Series [4] can be described thus: DPPH radical scavenging assay. The following applies: 1 mM test samples, 0.5 h. The procedure: The DPPH radical scavenging activities of analogs 1–10 were evaluated according to a previously described protocol to examine the antioxidant effects of analogs 1–10. Briefly, an aliquot (180 µL) of DPPH methanol solution (0.2 mM) was mixed with a 2-MBI analogs’ DMSO (dimethyl sulfoxide) solution in each well of a 96-well plate, and the mixture was left in the dark for 0.5 h at room temperature. The optical density of each well was analyzed using a microplate reader (VersaMax®, Molecular Devices, Sunnyvale, CA, USA).
As the antioxidant ability of a compound may be involved in the inhibition of melanogenesis, the antioxidant effects of analogs 1–10 on DPPH radicals were explored. Vitamin C (L-ascorbic acid), a strong antioxidant, was used as the positive control. After mixing the test sample and DPPH solutions and standing at room temperature in the dark for 0.5 h, the absorbances of the mixed samples were measured at 517 nm using 1 mM test samples.
(The DPPH test is a chemical assay of radical scavenging.)

The subject of the next series is HEK-293 cells. The series is described as follows: Cell viability (EZ-Cytox) assay in HEK-293 cells. The series is classed as cell-based, human. The conditions noted are these: 40 μM (maximum concentration), 24 h. As to the method: HEK-293 cells were obtained from American Type Culture Collection (ATCC; Manassas, VA, USA). Trypsin, streptomycin, fetal bovine serum (FBS), phosphate-buffered saline (PBS), penicillin, and Dulbecco’s modified Eagle’s medium (DMEM) for HEK-293 cell culture were purchased from Thermo Fisher Scientific (Carlsbad, CA, USA). HEK-293 cells were cultured in a DMEM solution containing penicillin (100 IU/mL), 10% heat-inactivated FBS, and streptomycin (100 µg/mL) in a 5% CO2 environment at 37 °C.
Cytotoxicity assays were performed using an EZ-Cytox assay (EZ-1000, DoGenBio, Seoul, Republic of Korea) in HEK-293 cells. Briefly, 96-well plates containing HEK-293 cells at a density of 1 × 10^4 cells per well were cultured in a 5% CO2 environment at 37 °C for 24 h. After 20 h, cells were treated with 2-MBI analogs 1−10 at 4 different concentrations (final concentration: 0, 2.5, 10, and 40 µM) and incubated for 24 h at 37 °C in a 5% CO2 environment. Then, 10 µL aliquot of the EZ-Cytox solution was added to each well. After 2 h incubation at 37 °C, the absorbance of each well was measured using a microplate reader (VersaMax®; Molecular Devices) at 450 nm.

Series [5] addresses T1, mushroom tyrosinase (Agaricus bisporus, UniProt C7FF04). Put plainly: Mushroom tyrosinase inhibitory assay, diphenolase activity (L-dopa substrate). The series is classed as biochemical. The following applies: vs kojic acid. As to the method: The effect of the analogs on enzyme inhibition was investigated in the presence of L-dopa and L-tyrosine. […] After incubating the assay mixture for 0.5 h at 37 °C, the amounts of dopachrome produced during the incubation time were evaluated by measuring the absorbances of each well at 475 nm using a VersaMax^TM microplate reader (Molecular Devices, Sunnyvale, CA, USA).
Target sequence in this assay (C7FF04 2-392): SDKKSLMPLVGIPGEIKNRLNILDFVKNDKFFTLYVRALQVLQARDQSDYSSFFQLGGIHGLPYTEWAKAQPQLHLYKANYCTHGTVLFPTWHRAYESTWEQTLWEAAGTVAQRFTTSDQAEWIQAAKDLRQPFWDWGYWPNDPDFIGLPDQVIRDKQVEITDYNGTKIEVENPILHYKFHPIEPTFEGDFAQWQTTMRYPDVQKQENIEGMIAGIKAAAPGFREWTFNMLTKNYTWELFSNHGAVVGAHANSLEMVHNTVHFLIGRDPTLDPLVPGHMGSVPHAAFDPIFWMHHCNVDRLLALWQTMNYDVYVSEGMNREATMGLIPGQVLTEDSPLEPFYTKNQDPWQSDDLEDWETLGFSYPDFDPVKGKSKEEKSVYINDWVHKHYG

Series [6] deals with T1, mushroom tyrosinase. Put plainly: biochemical. The following applies: for mode of tyrosinase inhibition: Lineweaver–Burk plots, L-dopa. The procedure:
Briefly, a dimethyl sulfoxide (DMSO) solution (10 µL) containing test analogs (final concentrations: 0, 5, 10, and 20 nM) was added to the wells of a 96-well plate containing mushroom tyrosinase (20 µL, 200 units/mL) and an aqueous solution (170 µL) consisting of L-dopa (final concentrations: 0.125, 0.25, 0.5, 1, 2, 4, and 8 mM) and phosphate buffer (final concentration: 14.7 mM, pH 6.5). The increase in the absorbance at 475 nm (ΔOD475/min) was measured using a VersaMax^TM microplate reader to determine the initial rate of dopachrome generation. The maximal velocity (Vmax) was determined from the y-axis intercept values of the Lineweaver–Burk plots obtained at seven different L-dopa concentrations. Dixon plots were obtained from Lineweaver–Burk plots for inhibitors by plotting the reciprocal of the reaction velocity against the inhibitor concentration.
Target sequence in this assay (C7FF04 1-392): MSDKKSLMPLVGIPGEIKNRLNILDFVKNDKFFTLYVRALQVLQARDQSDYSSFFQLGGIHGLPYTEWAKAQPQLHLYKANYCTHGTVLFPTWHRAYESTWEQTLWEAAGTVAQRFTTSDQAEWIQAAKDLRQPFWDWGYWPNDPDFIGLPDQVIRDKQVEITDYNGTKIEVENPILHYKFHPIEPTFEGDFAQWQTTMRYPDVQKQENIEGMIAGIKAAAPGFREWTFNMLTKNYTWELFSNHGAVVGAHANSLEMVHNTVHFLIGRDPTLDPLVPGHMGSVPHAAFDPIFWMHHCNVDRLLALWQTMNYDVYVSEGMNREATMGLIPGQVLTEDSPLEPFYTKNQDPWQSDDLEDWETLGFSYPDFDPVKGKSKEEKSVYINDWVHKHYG

[7] abbreviates: 5 mM spray (analogs as sodium salts).
The mark [8] stands for this setting: 5 mM spray every 12 h (analogs as sodium salts), 36 h storage, 20 °C.

Read-outs that look alike come from different tables or passages of the source.

As a reminder, the inhibition is the drop in the measured response relative to a control, in per cent. Take `NC(=S)Nc1ccccc1` [PTU, phenylthiourea, reference compound]: the “L* value change (ΔL*)” value in the series on freshly-cut apple slices (setting [7]) is 3.4. Also, the inhibition at 5000 µM in the series on freshly-cut apple slices was 21.9%. Further, in series [1], the water solubility result is on record as “poorly soluble in water”.

Consider `Cc1c(C)c2c(c(C)c1O)CCC(C)(C(=O)O)O2` (stereo not drawn) [Trolox, reference compound], for which the “ABTS radical cation scavenging activity, inhibition” value in series [2] was 96%. The “in vitro ROS scavenging effect” value in series [3] is listed as “greatly reduced”.

Take `O=C1O[C@H]([C@@H](O)CO)C(O)=C1O` [Vitamin C, L-ascorbic acid]: the “DPPH radical scavenging activity, inhibition” value in series [4] is reported as 98%.

For the compound `Sc1nc2ccccc2[nH]1` [analog 1, 1H-Benzo[d]imidazole-2-thiol], the inhibition at 5000 µM with freshly-cut apple slices fell in the range of 28.5 to 36.1%.

For the compound `Cc1cc2nc(S)[nH]c2cc1C` [analog 3, 5,6-Dimethyl-1H-benzo[d]imidazole-2-thiol], in the series with HEK-293 cells, the “cytotoxicity in HEK-293 cells” value is reported as “weakly”.

As to `Sc1nc2cc(Cl)ccc2[nH]1` [analog 4, 5-Chloro-1H-benzo[d]imidazole-2-thiol], in series [3], the “in vitro ROS scavenging effect” value is given as “most potently reduced”.

`COc1ccc2[nH]c(S)nc2c1` [analog 5, 5-Methoxy-1H-benzo[d]imidazole-2-thiol]: the “L* value change (ΔL*)” value with freshly-cut apple slices (setting [7]) worked out at 8.2.

A word on the Ki: it is a dissociation constant, usually derived from enzyme kinetics or from competition with a known ligand. Low readings indicate higher affinity, high ones lower affinity. As for `O=C(c1ccccc1)c1ccc2[nH]c(S)nc2c1` [analog 6, (2-Mercapto-1H-benzo[d]imidazol-5-yl)(phenyl)methanone], the “fold more potent than kojic acid, diphenolase activity” value at mushroom tyrosinase [5] came out at 970 fold. The “cytotoxicity in HEK-293 cells” value in the series with HEK-293 cells is “moderately cytotoxic”. For the same compound, on mushroom tyrosinase [6], the affinity, expressed as Ki, was 8.6 nM and the “mode of tyrosinase inhibition” value is recorded as “competitive”.

In the case of `O=[N+]([O-])c1ccc2[nH]c(S)nc2c1` [analog 7, 5-Nitro-1H-benzo[d]imidazole-2-thiol], the “L* value change (ΔL*)” value in the series with freshly-cut apple slices (setting [7]) came to 1.3.

For `Cc1cccc2[nH]c(S)nc12` [analog 9, 4-Methyl-1H-benzo[d]imidazole-2-thiol], in the series on freshly-cut apple slices (setting [8]), the inhibition at 5000 µM lay within 28.5 to 36.1%. The “ABTS radical cation scavenging activity, inhibition” value in series [2] is recorded as 90%.

For `N#Cc1ccc2[nH]c(S)nc2c1` [analog 10, 2-Mercapto-1H-benzo[d]imidazole-5-carbonitrile], in the series with freshly-cut apple slices (setting [7]), the “L* value change (ΔL*)” value was found to be 3.1. In addition, in the series with freshly-cut apple slices (5 mM spray (analogs as sodium salts), over 48 h storage), the “overall color difference (ΔE) of apple slices” value is recorded as “lowest increase in ΔE”. Further, the inhibition at 5000 µM with freshly-cut apple slices (setting [8]) lay in the range of 28.5 to 36.1%. Also, at mushroom tyrosinase [6], the Ki is 14.8 nM and the “mode of tyrosinase inhibition” value is “competitive”.

For the compound `O=c1cc(CO)occ1O` [kojic acid, reference compound], in the series on freshly-cut apple slices (setting [7]), the “L* value change (ΔL*)” value is recorded as 6.4. In addition, in the series with freshly-cut apple slices (setting [8]), the inhibition at 5000 µM stood at 7%.

Source of the values: PMC10604187 (Antioxidants, 2023).
